ChEMBL document CHEMBL5352415, “Discovery of new macrophage M2 polarization modulators as multiple sclerosis treatment agents that enable the inflammation microenvironment remodeling” (Eur J Med Chem, 2022)
The source made the active and inactive calls. The rule behind the calls is not given here.

Columns and labels:
Mus musculus [1] = experiment: (§1) Anti-inflammatory activity in MOG (35 to 55 residues)/pertussis toxin-induced experimental autoimmune encephalomyelitis C57BL/6 mouse model assessed as T cell activation by measuring increase in CD44lo CD62Lhi naive T cells in DLN at 75 to 150 mg/kg, po administered once daily starting from day 7 to day 20 by flow cytometric analysis; assay type: functional, organism-based; settings: dose 75-150 mg/kg, time 14.0 day
[2] = Inhibition of LPS-induced M1 macrophage polarization in C57BL/6 mouse BMDM cells assessed as fold change in IL-6 gene level at 1 uM preincubated with LPS for 24 hrs followed by compound addition and measured after 24 hrs by qRT-PCR analysis (reference value: 36.05 +/- 10.74); assay type: functional
[3] = Half-life in ICR mouse at 50 mg/kg, po measured upto 24 hrs by LC/MS analysis; assay type: ADME, organism-based; settings: in vivo
[4] = Induction of M2 macrophage polarization in C57BL/6 mouse BMDM cells assessed as fold increase in Arg1 gene level at 1 uM incubated for 24 hrs by qRT-PCR analysis; assay type: functional
[5] = target: T1, RAC-alpha serine/threonine-protein kinase (Mus musculus, UniProt P31750); experiment: Inhibition of Akt phosphorylation at Ser473 in C57BL/6 mouse BMDM cells at 50 to 500 nM incubated for 24 hrs by Western blot analysis; assay type: cell-based; settings: 0.5 µM, dose 50-500 nM
T1 sequence (P31750 whole entry, the tested form may be a part): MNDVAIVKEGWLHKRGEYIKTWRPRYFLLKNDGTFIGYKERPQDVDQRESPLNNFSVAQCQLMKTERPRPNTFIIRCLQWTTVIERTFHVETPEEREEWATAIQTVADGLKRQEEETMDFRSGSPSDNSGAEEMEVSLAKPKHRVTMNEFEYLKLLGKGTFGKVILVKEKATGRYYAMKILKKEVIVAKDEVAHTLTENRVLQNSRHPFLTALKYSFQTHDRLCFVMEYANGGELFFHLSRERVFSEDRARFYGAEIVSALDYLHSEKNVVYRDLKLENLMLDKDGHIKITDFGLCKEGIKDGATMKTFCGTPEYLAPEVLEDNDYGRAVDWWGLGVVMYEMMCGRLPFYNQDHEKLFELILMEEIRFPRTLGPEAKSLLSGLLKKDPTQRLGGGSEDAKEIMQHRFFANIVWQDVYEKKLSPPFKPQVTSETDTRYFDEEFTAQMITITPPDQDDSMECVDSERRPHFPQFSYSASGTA

Mus musculus [6] = experiment: (§2) Anti-inflammatory activity in MOG (35 to 55 residues)/pertussis toxin-induced experimental autoimmune encephalomyelitis C57BL/6 mouse model assessed as inhibition of M1 macrophage polarization by measuring decrease in Inos mRNA expression in CNS administered orally once daily starting from day 7 to day 20 by qRT-PCR analysis; assay type: functional, organism-based; settings: dose 75-150 mg/kg, route po, time 14.0 day
Mus musculus [7] = experiment: (§3) Anti-inflammatory activity in MOG (35 to 55 residues)/pertussis toxin-induced experimental autoimmune encephalomyelitis C57BL/6 mouse model assessed as inhibition of CD4+ T cell differentiation by measuring reduction in Th1 (IFN-gamma+) cells in DLN administered orally once daily starting from day 7 to day 20 by flow cytometric analysis; assay type: functional, organism-based; settings: dose 75-150 mg/kg, route po, time 14.0 day
[8] = Inhibition of LPS-induced M1 macrophage polarization in C57BL/6 mouse BMDM cells assessed as fold decrease in Inos gene level at 1 uM preincubated with LPS for 24 hrs followed by compound addition and measured after 24 hrs by qRT-PCR analysis (reference value: 524.05 +/- 24.75); assay type: functional
Mus musculus [9] = experiment: as §3, with “Th17 (Il-4+)” for “Th1 (IFN-gamma+)”, “spleen” for “DLN”; assay type: functional, organism-based; settings: dose 75-150 mg/kg, route po, time 14.0 day
Mus musculus [10] = experiment: as §1, with “decrease” for “increase”, “CD44hi CD62Llo” for “CD44lo CD62Lhi naive”, “spleen” for “DLN”; assay type: functional; design: scale not given: the % may be the effect or the level left; settings: dose 75-150 mg/kg, time 14 day
[11] = AUC(0 to infinity) in ICR mouse at 50 mg/kg, po measured upto 24 hrs by LC/MS analysis; assay type: ADME, organism-based; design: dose 50 mg/kg, time < 24 hrs, route po; settings: in vivo
[12] = Inhibition of M1 macrophage polarization in C57BL/6 mouse BMDM cells assessed as fold change in IL-6 gene level at 1 uM incubated for 24 hrs by qRT-PCR analysis (reference value: 1); assay type: functional
Mus musculus [13] = experiment: as §3, with “Th17 (Il-4+)” for “Th1 (IFN-gamma+)”; assay type: functional, organism-based; settings: dose 75-150 mg/kg, route po, time 14.0 day
BMDM [14] = experiment: Inhibition of LPS-induced M1 macrophage polarization in C57BL/6 mouse BMDM cells assessed as decrease in IFN-gamma level preincubated with LPS for 24 hrs followed by compound addition and measured after 24 hrs by qRT-PCR analysis; assay type: functional, cell-based; settings: dose 0.05-2 µM
[15] = target: T1, RAC-alpha serine/threonine-protein kinase; experiment: Inhibition of LPS-induced Akt phosphorylation at Ser473 in C57BL/6 mouse BMDM cells at 50 to 500 nM incubated for 24 hrs by Western blot analysis; assay type: cell-based; settings: 0.5 µM, dose 50-500 nM
Mus musculus [16] = experiment: as §2, with “M2” for “inhibition of M1”, “increase” for “decrease”, “Arg1” for “Inos”, “CNS at 75 to 150 mg/kg, po” for “CNS”, “administered” for “administered orally”; assay type: functional, organism-based; settings: dose 75-150 mg/kg, time 14.0 day
Mus musculus [17] = experiment: as §2, with “Mcp1” for “Inos”; assay type: functional, organism-based; settings: dose 75-150 mg/kg, route po, time 14.0 day
[18] = Tmax in ICR mouse at 50 mg/kg, po measured upto 24 hrs by LC/MS analysis; assay type: ADME, organism-based; settings: in vivo
BMDM [19] = experiment: Inhibition of LPS-induced M1 macrophage polarization in C57BL/6 mouse BMDM cells assessed as decrease in Inos gene level preincubated with LPS for 24 hrs followed by compound addition and measured after 24 hrs by qRT-PCR analysis; assay type: functional, cell-based; settings: dose 0.05-2 µM
[20] = AUC(0 to t) in ICR mouse at 50 mg/kg, po measured upto 24 hrs by LC/MS analysis; assay type: ADME, organism-based; design: dose 50 mg/kg, time < 24 hrs, route po; settings: in vivo
Mus musculus [21] = experiment: as §2, with “interferon-gamma” for “Inos”, “CNS at 75 to 150 mg/kg, po” for “CNS”, “administered” for “administered orally”; assay type: functional, organism-based; settings: dose 75-150 mg/kg, time 14.0 day
Mus musculus [22] = experiment: as §1, with “decrease” for “T cell activation by measuring increase”, “F4/80+ CD86+ M1 macrophage” for “CD44lo CD62Lhi naive T cells”; assay type: functional, organism-based; settings: dose 75-150 mg/kg, time 14.0 day
Mus musculus [23] = experiment: as §1, with “decrease” for “increase”, “CD44hi CD62Llo” for “CD44lo CD62Lhi naive”; assay type: functional; design: scale not given: the % may be the effect or the level left; settings: dose 75-150 mg/kg, time 14 day
Mus musculus [24] = experiment: Anti-inflammatory activity in MOG (35 to 55 residues)/pertussis toxin-induced experimental autoimmune encephalomyelitis C57BL/6 mouse model assessed as decrease in disease progression by measuring cumulative score at 75 to 150 mg/kg, po administered once daily starting from day 7 to day 20; assay type: functional, organism-based; settings: dose 75-150 mg/kg, time 14.0 day
[25] = Induction of M2 macrophage polarization in C57BL/6 mouse BMDM cells assessed as fold increase in Ym1 gene level at 1 uM incubated for 24 hrs by qRT-PCR analysis; assay type: functional
Mus musculus [26] = experiment: Anti-inflammatory activity in MOG (35 to 55 residues)/pertussis toxin-induced experimental autoimmune encephalomyelitis C57BL/6 mouse model assessed as attenuation of demyelination in spinal cord at 75 to 150 mg/kg, po administered once daily starting from day 7 to day 20 by luxol fast blue staining based analysis; assay type: functional, organism-based; settings: dose 75-150 mg/kg, time 14.0 day
[27] = target: RAC-alpha serine/threonine-protein kinase (Homo sapiens, UniProt P31749); experiment: Inhibition of AKT1 (unknown origin); assay type: binding
Chain of RAC-alpha serine/threonine-protein kinase (Homo sapiens, UniProt P31749) (P31749 whole entry): as the sequence (P31750 whole entry, the tested form may be a part) above, with N2S, S50A, A100T, R112K, T117E, T389K, N410G, D415H counted along it

Mus musculus [28] = experiment: as §1, with “spleen” for “DLN”; assay type: functional, organism-based; settings: dose 75-150 mg/kg, time 14.0 day
[29] = Cmax in ICR mouse at 50 mg/kg, po measured upto 24 hrs by LC/MS analysis; assay type: ADME, organism-based; design: dose 50 mg/kg, time < 24 hrs, route po; settings: in vivo
Mus musculus [30] = experiment: as §1, with “as” for “as T cell activation by measuring”, “F4/80+ CD206+ M2 macrophage” for “CD44lo CD62Lhi naive T cells”; assay type: functional; settings: dose 75-150 mg/kg, time 14 day
[31] = Inhibition of LPS-induced M1 macrophage polarization in C57BL/6 mouse BMDM cells assessed as fold change in IL-1beta gene level at 1 uM preincubated with LPS for 24 hrs followed by compound addition and measured after 24 hrs by qRT-PCR analysis (reference value: 44.88 +/- 1.99); assay type: functional

In the case of `Cl.Cn1ncc(Br)c1-c1ccc(C(=O)N[C@@H]2CNCC[C@H]2c2ccc(F)c(F)c2)cc1C1CC1`, the Activity (Mus musculus [1]) is reported as “Active”, the “fold change (FC)” value [2] is reported as 69.99 and the half-life [3] is reported as 13.7 h. For the same molecule, the “fold change (FC)” value [4] was 10.28, the “inhibition (INH)” value [5] was “Not Active” and the Activity (Mus musculus [6]) was “Dose-Dependent Effect”. For the same molecule, the Activity (Mus musculus [7]) was “Dose-Dependent Effect”, the “fold change (FC)” value [8] was 195.4 and the Activity (Mus musculus [9]) was “Dose-Dependent Effect”. The Activity (Mus musculus [10]) was 19%, the AUC(0-inf) [11] was 27.9 µg·h/mL and the “fold change (FC)” value [12] was 2.22. The Activity (Mus musculus [13]) was “Dose-Dependent Effect”, the inhibition (BMDM [14]) was “Dose-Dependent Effect” and the “inhibition (INH)” value [15] was “Not Active”. For the same molecule, the Activity (Mus musculus [16]) was “Active”, the Activity (Mus musculus [17]) was “Dose-Dependent Effect” and the Tmax [18] was 4 h. For the same molecule, the inhibition (BMDM [19]) was “Dose-Dependent Effect”, the AUC(0-t) at 24 h [20] was 27.6 µg·h/mL and the Activity (Mus musculus [21]) was “Active”. The Activity (Mus musculus [22]) was “Active”, the Activity (Mus musculus [23]) was 29% and the Activity (Mus musculus [24]) was “Active”. The “fold change (FC)” value [25] was 14.31, the Activity (Mus musculus [26]) was “Active” and the IC50 [27] was 0.434 µM. For the same molecule, the Activity (Mus musculus [28]) was “Active”, the Cmax [29] was 1.99 µg/mL and the Activity (Mus musculus [30]) was 10.6%. For the same molecule, the “fold change (FC)” value [31] was 71.77.
